These results are taken from patent US20200164005A1, “PHARMACEUTICAL COMPOSITIONS OF A BILE ACID DERIVATIVE AND MICROBIOME AND USES THEREOF” (Intercept Pharmaceuticals, Inc., priority 2017, published 2020).

Experiment [1] has as its system C4 (7α-hydroxy-4-cholesten-3-one). Briefly: Plasma C4 level after OCA and its association with microbiome species (GEE). The class given is in vivo, human. How it is done:
C4 level was measured on 5 mg and 10 mg OCA dose groups. The day 1 pre-dose C4 was used as a match of day 1 microbiome measurement. The average level of C4 from day 4 to day 17 pre-dose was calculated as a match of day 15 or 16 microbiome measurement. The average C4 level on day 30 and day 44 was used as a match of microbiome on day 37. The average of multiple time points was taken to match the three time points of microbiome measurements.
Geeglm(fgf19·log 2˜hour+dose+hour:dose, id=sID, corstr=“exchangeable”) • C4 analysis: The GEE model was applied in association study of C4 and microbiome species. Both C4 and species relative abundance were log 2 transformed before applying GEE model.
Geeglm(species·log 2˜C4·log 2, id=sID, corstr=“exchangeable”)
Twenty-four healthy subjects were randomly assigned to one of three dose groups (5 mg, 10 mg, or 25 mg OCA per day), with each dose group comprising eight subjects (four women and four men). A single oral OCA dose of 5 mg, 10 mg, or 25 mg tablets, depending on the treatment assignment, was administered on Day 1. In the multiple-dose phase, a single oral OCA dose of 5 mg, 10 mg, or 25 mg tablets, in accordance with the assigned treatment, was administered orally once daily for 14 days from Days 4-17. The patients remained at the study site until Day 30, and were followed up until the final visit on Day 44 (FIG. 62A). Fecal specimens were collected at baseline (Day 0), at the end of the multiple-dose phase (Day 17), and at the end of the study (Day 37). Pharmacokinetic blood samples were assessed pre-dose and on Days 1-3, 17, 35, 37, 39, and 44. […] Therefore, plasma C4 levels are a reliable dynamic indicator of the host response to FXR activation by OCA, that leads to the suppression of endogenous bile acid synthesis (Hirschfield et al., Gastroenterology 148, 751-761 e758 (2015); Mudaliar et al., Gastroenterology 145, 574-582 e571 (2013)).

Experiment [2] concerns small intestinal microbiota. The experiment can be described thus: 16S tagged sequencing of small intestinal and fecal microbiota of OCA-treated mice. The class given is in vivo. The note with it: 10 mg/kg OCA, 14 days. The text has this: FIG. 60: The effect of OCA on the composition of the proximal and distal small intestinal, as well as the feces, microbiota of mice based on 16S tagged sequencing.
FIG. 63: Box and whisker plots of differentially abundant taxa in the distal small intestine of mice in response to treatment with OCA relative to two controls. S24-7, Clostridiaceae, and Turibacter are differentially abundant between the MC and OCA groups (fdr=0.1759, 0.04503, and 0.2332, respectively); Sutterella and Akkermansia are differentially abundant between the control and OCA groups (fdr=0.3199 for both).
The bacterial species that increase most prominently upon OCA treatment have been reported to represent a significant proportion of the small intestinal microbiota, but are very minor constituents in stool. For example, Streptococci represent as much as 20% of the human small intestinal microbiota by 16S tagged sequencing (Dlugosz et al., Sci Rep-Uk, 5 (2015)); El Aidy et al., Curr Opin Biotechnol., 32, 14-20 (2015)). […] To determine whether OCA treatment can alter the gut microbiota composition specifically in the small intestine, mice were treated with OCA for 14 days, the microbiota composition in the proximal and distal small intestine, as well as the stool, and quantified bile acids were characterized. […] Also notable was the quantitative difference in the absolute levels of luminal bile acids in the small intestine (approximately 100-fold greater than in the feces, FIGS. 59A-59C); this is consistent with enterohepatic reabsorption of over 95% of bile acids in the terminal ileum of the small intestine (de Aguiar Vallim et al., Cell Metabolism, 17, 657-669 (2013)).

SMILES strings stand for the structures.

For `CC[C@H]1[C@@H](O)[C@@H]2[C@H](CC[C@]3(C)[C@@H]([C@H](C)CCC(=O)O)CC[C@@H]23)[C@@]2(C)CC[C@@H](O)C[C@@H]12` [OCA, 3α,7α-dihydroxy-6α-ethyl-5β-cholan-24-oic acid], the “plasma levels of C4 relative to Day 0 (pre-OCA dose)” value in experiment [1] (Day 16) is “maximally suppressed”. In addition, the “plasma levels of C4 at maximal time off OCA” value in experiment [1] (Day 37) is “returned to normal”. Besides, the “plasma C4 in response to OCA treatment” value in experiment [1] (serial quantification, repeated measure ANOVA) is recorded as “time-dependent reduction”. In experiment [2], the “Clostriciaceae family of Firmicutes in proximal and distal small intestine” value is “increased abundance”; the “Clostriciaceae family of Firmicutes in the feces” value is “not in the feces”. The “overall composition of the small intestinal microbiota” value in experiment [2] (versus water and methylcellulose) is given as “different from both control groups”.
